In patent publication US7670613B2, “Androgen modulators” (Pfizer Inc., priority 2004, dated 2010):
Positions count from the first letter of the chain named. Read-outs that look alike come from different tables or passages of the source.

Experiments:
[1] = after 7 years of treatment; cited from earlier work
[2] = biological target: T1, hAR (Homo sapiens, UniProt P10275); assay: Competitive binding analysis on baculovirus/Sf9 generated hAR extracts with 3H-DHT tracer; settings: 1 nM 3H-DHT, one hour at 4° C., mean of multiple tests
T1 construct: made in house; host or cells: baculovirus/Sf9 insect cells
T1 sequence (P10275 1-920): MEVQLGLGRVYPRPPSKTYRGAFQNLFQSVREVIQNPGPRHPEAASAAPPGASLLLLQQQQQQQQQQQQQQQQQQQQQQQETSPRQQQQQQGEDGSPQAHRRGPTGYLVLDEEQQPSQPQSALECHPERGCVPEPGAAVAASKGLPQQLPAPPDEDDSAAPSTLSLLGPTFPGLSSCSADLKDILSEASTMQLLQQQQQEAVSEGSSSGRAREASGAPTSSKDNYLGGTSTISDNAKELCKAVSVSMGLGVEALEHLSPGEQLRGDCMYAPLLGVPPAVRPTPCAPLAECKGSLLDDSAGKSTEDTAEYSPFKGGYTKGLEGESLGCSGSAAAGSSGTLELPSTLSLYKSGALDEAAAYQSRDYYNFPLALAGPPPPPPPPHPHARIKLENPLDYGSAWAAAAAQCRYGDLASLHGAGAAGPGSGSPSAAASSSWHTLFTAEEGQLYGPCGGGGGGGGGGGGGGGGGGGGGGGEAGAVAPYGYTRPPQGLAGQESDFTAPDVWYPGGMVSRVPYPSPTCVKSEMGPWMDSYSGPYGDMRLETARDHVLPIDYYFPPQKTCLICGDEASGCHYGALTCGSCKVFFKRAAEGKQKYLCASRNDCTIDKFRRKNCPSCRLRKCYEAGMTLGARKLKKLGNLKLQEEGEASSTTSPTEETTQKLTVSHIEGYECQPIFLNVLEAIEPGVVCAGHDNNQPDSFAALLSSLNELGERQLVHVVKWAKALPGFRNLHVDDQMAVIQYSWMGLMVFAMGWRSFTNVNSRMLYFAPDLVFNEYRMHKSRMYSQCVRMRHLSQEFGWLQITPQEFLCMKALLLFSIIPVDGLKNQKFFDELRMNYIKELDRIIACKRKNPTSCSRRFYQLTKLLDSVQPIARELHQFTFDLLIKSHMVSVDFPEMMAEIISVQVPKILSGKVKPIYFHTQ
Procedure: The description below describes how the assay was carried out.
Competitive binding analysis was performed on baculovirus/Sf9 generated hAR extracts in the presence or absence of different concentrations of test agent and a fixed concentration of ^3H-dihydrotestosterone (^3H-DHT) as tracer. This binding assay method is a modification of a protocol previously described (Liao S., et. al. J. Steroid Biochem. 20:11-17 1984). Briefly, progressively decreasing concentrations of compounds are incubated in the presence of hAR extract (Chang et al. P.N.A.S. Vol. 89, pp. […], 1992), hydroxylapatite, and 1 nM ^3H-DHT for one hour at 4° C. Subsequently, the binding reactions are washed three times to completely remove excess unbound ^3H-DHT. hAR bound ^3H-DHT levels are determined in the presence of compounds (i.e. competitive binding) and compared to levels bound when no competitor is present (i.e. maximum binding). Compound binding affinity to the hAR is expressed as the concentration of compound at which one half of the maximum binding is inhibited.

[3] = biological target: T2, androgen receptor (Homo sapiens, UniProt P10275, Q868H); assay: AR antagonist cell assay (MDA-MB453-MMTV clone 54-19, luciferase reporter); assay type: cell-based; settings: 100 pM DHT, 17 hr, mean of multiple tests
T2 construct: a human breast tumor cell line expressing androgen receptor; endogenous in cells; host or cells: MDA-MB453-MMTV clone 54-19 (only the MMTV-luciferase reporter was transfected)
T2 sequence (P10275 1-920 Q868H): T1 sequence (P10275 1-920) with Q868H
Procedure: The compounds ability to antagonize the effects of androgen on the androgen receptor were determined in a whole cell assay as described immediately below.
Experimental Procedure for AR Antagonist Cell Assay
This cell line is a stable transfected cell line with MDA-MB453 cell background (a human breast tumor cell line expressing androgen receptor). A MMTV minimal promoter containing ARE was first cloned in front of a firefly luciferase reporter gene. Then the cascade was cloned into transfection vector pUV120puro. Electroporation method was used for transfecting MDA-MB-453 cell. Puromycin resistant stable cell line was selected.
Cell Culture Media and Reagents:
Culture medium: DMEM (high glucose, Gibco cat #: 11960-044), 10% FBS, and 1% L-glutamine
Plating medium: DMEM (phenol red free), 10% charcoal treated HyClone serum, 1% L-glutamine
Assay medium: DMEM (phenol red free), 1% charcoal treated HyClone serum, 1% L-glutamine, and 1% penicillin/streptomycin
3× luciferase buffer: 2% beta-mercaptoethanol, 0.6% ATP, 0.0135% luciferine in cell lysis buffer
• 1. Cells are maintained in culture medium, splitting cells when they reach 80-90% confluence • 2. To test compounds, 10,000 cells/well are plated to opaque 96 cell culture plate in 100 ul/well plating medium, culture for overnight at 37° C. in cell culture incubator • 3. Carefully remove plating medium, then add 80 ul/well of pre-warmed assay medium, add 10 ul/well testing compound (final concentration at) 1000 nM, 200 nM, 40 nM, 8 nM, 1.6 nM, and 0.32 nM), incubate at 37° C. for 30 minutes • 4. Add 10 ul/well freshly prepared DHT (final concentration at 100 pM) to each well, incubate at 37° C. for 17 hr (overnight) • 5.
The results are reported as the mean of multiple tests as described below (the numbers of tests are indicated in the footnote). N.D. denotes that the compound was not tested.

[4] = MDA-MB453-MMTV clone 54-19 cells, read-out: AR Cell IC50
[5] = hAR extract, read-out: AR Binding IC50
[6] = AR Cell IC50, MDA-MB453-MMTV clone 54-19 cells

SMILES | Increase in spinal BMD [1] | IC50 ([2]; AR Binding IC50, hAR extract) | IC50 [3, 4] | IC50 [2, 5] | IC50 [3, 6]
NCCCC(O)(P(=O)(O)O)P(=O)(O)O [alendronate] | ≤ 11% |  |  |  | 
N#Cc1ccc(O[C@H]2CCCCC2c2ccccc2)cc1Cl (stereo in doubt) [Example 33, 2-Chloro-4-(2-(S)-phenyl-(S)-cyclohexyloxy)-benzonitrile] |  | 60 nM | 485 nM |  | 
N#Cc1ccc(O[C@H]2CCCC[C@@H]2c2ccccc2)cc1C(F)(F)F [Example 3, 4-(2-(R)-Phenyl-1-(S)-cyclohexyloxy)-2-trifluoromethyl-benzonitrile] |  | 73 nM | > 1000 nM |  | 
CCC1CCCCC1Oc1ccc(C#N)c(Cl)c1 (stereo not shown) [Example 27, 2-Chloro-4-(2-ethyl-cyclohexyloxy)-benzonitrile] |  | 30 nM | 330 nM |  | 
C=CCO[C@H]1CCCC[C@@H]1Oc1ccc(C#N)c(C(F)(F)F)c1 [Example 71, (1S,2S)-4-(2-Allyloxy-cyclohexyloxy)-2-trifluoromethyl-benzonitrile] |  |  |  | 374 nM | 23 nM
C[C@@H]1CCCC[C@@H]1Oc1ccc(C#N)c(C(F)(F)F)c1 [Example 9, (1S,2R)-4-(2-Methyl-cyclohexyloxy)-2-trifluoromethyl-benzonitrile] |  | 22 nM | 751 nM |  | 
CO[C@H]1CCCC[C@H]1Oc1ccc(C#N)c(Cl)c1 (relative stereo) [Example 36, 2-Chloro-4-(cis-2-methoxy-cyclohexyloxy)-benzonitrile] |  | 123 nM | 300 nM |  | 
CC1(O)C[C@@H]2C[C@H]1CC2Oc1ccc(C#N)c(C(F)(F)F)c1 (stereo in doubt) [Example 1, 4-(5-Hydroxy-5-methyl-bicyclo[2.2.1]hept-2-yloxy)-2-trifluoromethyl-benzonitrile] |  |  |  | 655 nM | 80 nM
CC1CCC(Oc2ccc(C#N)c(Cl)c2)C1 (stereo not shown) [Example 23, 2-Chloro-4-(3-methyl-cyclopentyloxy)-benzonitrile] |  |  | 202 nM | 145 nM | 
C=CCC1(Oc2ccc(C#N)c(C(F)(F)F)c2)CCCCC1 [Example 4, 4-(1-Allyl-cyclohexyloxy)-2-trifluoromethyl-benzonitrile] |  | 48 nM | > 1000 nM |  | 
C=C(C)[C@H]1CC[C@H](C)[C@@H](Oc2ccc(C#N)c(Cl)c2)C1 [Example 49, (1S,2S,5S)-2-Chloro-4-(5-isopropenyl-2-methyl-cyclohexyloxy)-benzonitrile] |  | 10 nM | 49 nM |  | 
CCC1CCCCC1Oc1ccc(C#N)c(Cl)c1 (stereo not shown) [Example 22, 2-Chloro-4-(2-ethyl-cyclohexyloxy)-benzonitrile] |  | 71 nM | > 1000 nM |  | 
CC(C)[C@H]1CC[C@H](C)C[C@@H]1Oc1ccc(C#N)c(Cl)c1 [Example 47, (1S,2R,5S)-2-Chloro-4-(2-isopropyl-5methyl-cyclohexyloxy)-benzonitrile] |  |  | 750 nM | 107 nM | 
